pIC50: −log10 of the molar value.
Columns and labels:
PR-B = molecular target: T1, PR-B (Homo sapiens, UniProt P06401); assay: Transactivation test on antagonistic activity on PR-B; format: cell-based
T1 construct: expressed in transfected cells
T1 sequence (P06401 1-933): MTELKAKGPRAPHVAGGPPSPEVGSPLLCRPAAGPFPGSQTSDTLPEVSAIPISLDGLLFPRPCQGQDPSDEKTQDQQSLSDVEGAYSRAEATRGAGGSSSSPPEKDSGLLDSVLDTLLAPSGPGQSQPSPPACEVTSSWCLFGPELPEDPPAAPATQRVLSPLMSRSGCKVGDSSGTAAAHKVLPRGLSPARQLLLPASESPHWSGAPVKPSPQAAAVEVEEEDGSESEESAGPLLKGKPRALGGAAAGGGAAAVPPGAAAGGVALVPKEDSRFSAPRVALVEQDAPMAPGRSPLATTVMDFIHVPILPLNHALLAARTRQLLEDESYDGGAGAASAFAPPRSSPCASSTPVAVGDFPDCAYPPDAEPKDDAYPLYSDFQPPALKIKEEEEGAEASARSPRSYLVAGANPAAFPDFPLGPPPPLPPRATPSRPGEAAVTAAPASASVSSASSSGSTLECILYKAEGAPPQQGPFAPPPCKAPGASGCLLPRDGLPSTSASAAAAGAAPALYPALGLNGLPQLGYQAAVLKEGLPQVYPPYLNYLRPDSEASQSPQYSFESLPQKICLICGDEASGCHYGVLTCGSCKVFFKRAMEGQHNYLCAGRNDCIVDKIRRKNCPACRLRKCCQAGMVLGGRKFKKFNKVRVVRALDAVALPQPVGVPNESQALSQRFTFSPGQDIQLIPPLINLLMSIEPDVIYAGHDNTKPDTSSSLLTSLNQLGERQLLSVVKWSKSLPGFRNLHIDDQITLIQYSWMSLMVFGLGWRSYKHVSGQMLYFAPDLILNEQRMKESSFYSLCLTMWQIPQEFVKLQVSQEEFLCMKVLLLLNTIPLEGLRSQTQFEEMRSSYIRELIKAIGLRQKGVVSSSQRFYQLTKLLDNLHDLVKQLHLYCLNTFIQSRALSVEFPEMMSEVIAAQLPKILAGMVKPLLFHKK
Description: (§1) The transactivation assay is carried out as described in WO 02/054064.

PR-A = molecular target: T2, PR-A (Homo sapiens, UniProt P06401); assay: Transactivation test on antagonistic activity at PR-A; format: cell-based; settings: for pIC50: antagonism at PR-A; for Emax: read-out: Efficacy (antagonism at PR-A) [%]
T2 construct: expressed in transfected cells
T2 sequence (P06401 1-769 isoform P06401-2): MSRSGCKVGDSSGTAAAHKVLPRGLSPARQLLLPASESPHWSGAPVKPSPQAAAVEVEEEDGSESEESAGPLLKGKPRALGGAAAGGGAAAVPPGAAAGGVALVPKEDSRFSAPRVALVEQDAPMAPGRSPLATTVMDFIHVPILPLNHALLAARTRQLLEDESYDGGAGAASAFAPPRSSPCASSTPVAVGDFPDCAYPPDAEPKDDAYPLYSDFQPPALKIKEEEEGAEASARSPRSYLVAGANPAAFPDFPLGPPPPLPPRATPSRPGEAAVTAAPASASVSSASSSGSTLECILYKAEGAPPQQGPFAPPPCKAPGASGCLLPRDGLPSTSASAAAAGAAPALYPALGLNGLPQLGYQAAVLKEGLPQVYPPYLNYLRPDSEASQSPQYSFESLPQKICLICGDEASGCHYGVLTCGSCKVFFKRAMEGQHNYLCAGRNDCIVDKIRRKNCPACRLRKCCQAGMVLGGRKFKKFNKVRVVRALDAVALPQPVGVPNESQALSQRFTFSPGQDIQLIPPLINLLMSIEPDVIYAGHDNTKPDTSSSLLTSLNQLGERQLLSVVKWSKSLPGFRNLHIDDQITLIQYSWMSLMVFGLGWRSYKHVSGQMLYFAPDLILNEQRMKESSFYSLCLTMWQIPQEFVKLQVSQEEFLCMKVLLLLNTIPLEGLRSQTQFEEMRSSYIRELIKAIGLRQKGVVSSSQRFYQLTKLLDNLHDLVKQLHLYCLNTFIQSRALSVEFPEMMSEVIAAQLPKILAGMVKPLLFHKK
Description: as §1

Row | SMILES | pIC50 (PR-B) | pIC50 (PR-A) | Emax (PR-A) [%]
1 | N#Cc1ccc(NC(=O)C(O)(Cc2ccccc2)C2CCCCC2)cc1Cl (racemic) [Example 3, rac-N-(3-Chloro-4-cyanophenyl)-2-hydroxy-2-cyclohexyl-3-phenylpropanamide] | 8.25 | – | –
2 | Cc1ccc(C#CC(O)(C(=O)Nc2ccc(C#N)c(Cl)c2)C2CCCCC2)cc1 (racemic) [Example 4, rac-N-(3-Chloro-4-cyanophenyl)-2-hydroxy-2-cyclohexyl-2-(4-methylphenyl)-ethynylacetamide] | 8.70 | – | –
3 | N#Cc1ccc(NC(=O)C(O)(C#Cc2ccc(O)cc2)C2CCCCC2)cc1Cl (racemic) [Example 10, rac-N-(3-Chloro-4-cyanophenyl)-2-hydroxy-2-cyclohexyl-2-(4-hydroxyphenyl)-ethynylacetamide] | 8.15 | – | –
4 | CC(=O)c1ccc(-c2ccccc2CC(O)(C(=O)Nc2ccc(C#N)c(Cl)c2)C2CCCCC2)cc1 (single isomer, unassigned) [Example 19a, rac-3-(4′-Acetylbiphenyl-2-yl)-N-(3-chloro-4-cyanophenyl)-2-cyclohexyl-2-hydroxy-propionamide] | – | 8.20 | 108
5 | N#Cc1ccc(NC(=O)C(O)(Cc2ccccc2)C2CCN(C(=O)c3ccccc3)CC2)cc1C(F)(F)F (single isomer, unassigned) [Example 101a, 2-(1-Benzoylpiperidin-4-yl)-N-(4-cyano-3-trifluoromethylphenyl)-2-hydroxy-3-phenylpropionamide] | – | 7.83 | 103
6 | CS(=O)(=O)N1CCC(C(O)(Cc2ccccc2)C(=O)Nc2ccc(C#N)c(C(F)(F)F)c2)CC1 (single isomer, unassigned) [Example 103, N-(4-Cyano-3-trifluoromethylphenyl)-2-hydroxy-2-(1-methanesulfonyl-piperidin-4-yl)-3-phenylpropionamide] | – | 7.31 | 98.5
7 | N#Cc1ccc(NC(=O)C(O)(Cc2ccccc2)C2CCN(C(=O)C3CC3)CC2)cc1C(F)(F)F (single isomer, unassigned) [Example 108, N-(4-Cyano-3-trifluoromethylphenyl)-2-(1-cyclopropanecarbonylpiperidin-4-yl)-2-hydroxy-3-phenylpropion amide] | – | 7.44 | 96
8 | N#Cc1ccc(NC(=O)C(O)(Cc2ccccc2)C2CCN(S(=O)(=O)c3cccc(Cl)c3)CC2)cc1C(F)(F)F (single isomer, unassigned) [Example 111, 2-[1-(3-Chlorobenzenesulfonyl)-piperidin-4-yl]-N-(4-cyano-3-trifluoro-methylphenyl)-2-hydroxy-3-phenyl-propionamide] | – | 8.38 | 103
9 | N#Cc1ccc(NC(=O)C(O)(Cc2ccccc2)C2CCN(C(=O)c3ccno3)CC2)cc1C(F)(F)F (single isomer, unassigned) [Example 113, N-(4-Cyano-3-trifluoromethylphenyl)-2-hydroxy-2-[1-(isoxazole-5-carbonyl)piperidin-4-yl]-3-phenyl-propionamide] | – | 7.66 | 97.9
10 | CNC(=O)c1cccc(-c2cccc(CC(O)(C(=O)Nc3ccc(C#N)c(C(F)(F)F)c3)C3CCN(C(=O)c4ccccc4)CC3)c2)c1 (single isomer, unassigned) [Example 159, N-Methyl-3′-[2-(1-benzoylpiperidin-4-yl)-2-(4-cyano-3-trifluoromethylphenyl-carbamoyl)-2-hydroxyethyl]biphenyl-3-carboxamide] | – | 7.80 | 96.2
11 | N#Cc1ccc(NC(=O)C(O)(Cc2cccc(-c3cccc(C(N)=O)c3)c2)C2CCN(S(=O)(=O)c3ccc(F)cc3)CC2)cc1C(F)(F)F (single isomer, unassigned) [Example 172, 3′-{2-(4-Cyano-3-trifluoromethyl-phenylcarbamoyl)-2-[1-(4-fluoro-benzenesulfonyl)piperidin-4-yl]-2-hydroxyethyl}biphenyl-3-carboxamide] | – | 8.92 | 101
12 | N#Cc1ccc(NC(=O)C(O)(Cc2cccc(O)c2)C2CCCCC2)cc1C(F)(F)F (single isomer, unassigned) [Example 200b, N-(4-Cyano-3-trifluoromethylphenyl)-2-cyclohexyl-2-hydroxy-3-(3-hydroxy-phenyl)propionamide] | – | 8.25 | 98.5
13 | CNS(=O)(=O)c1ccc(-c2cccc(C[C@](O)(C(=O)Nc3ccc(C#N)c(C(F)(F)F)c3)C3CCCCC3)c2)cc1 (stereo in doubt) [Example 63, N-(4-Cyano-3-trifluoromethylphenyl)-2-cyclohexyl-2-hydroxy-3-(4′-methyl-sulfamoylbiphenyl-3-yl)propionamide] | – | 7.58 | 104
14 | N#Cc1ccc(NC(=O)C(O)(Cc2cccc(-c3ccsc3)c2)C2CCCCC2)cc1C(F)(F)F (stereo not drawn) [Example 59, N-(4-Cyano-3-trifluoromethylphenyl)-2-cyclohexyl-2-hydroxy-3-(3-thiophen-3-ylphenyl)propionamide] | – | 7.33 | 103
15 | CNC(=O)c1cccc(-c2cccc(CC(O)(C(=O)Nc3ccc(C#N)c(C(F)(F)F)c3)C3CCCCC3)c2)c1 (stereo not drawn) [Example 68, N-Methyl-3′-[2-(4-cyano-3-trifluoro-methylphenylcarbamoyl)-2-cyclohexyl-2-hydroxyethyl]biphenyl-3-carboxamide] | – | 8.29 | 102
16 | CC(=O)Nc1cccc(-c2cccc(CC(O)(C(=O)Nc3ccc(C#N)c(C(F)(F)F)c3)C3CCCCC3)c2)c1 (stereo not drawn) [Example 71, 3-(3′-Acetylaminobiphenyl-3-yl)-N-(4-cyano-3-trifluoromethylphenyl)-2-cyclohexyl-2-hydroxypropionamide] | – | 7.76 | 100
17 | N#Cc1ccc(NC(=O)C(O)(Cc2cccc(-c3ccc(C(=O)CO)cc3)c2)C2CCCCC2)cc1C(F)(F)F (stereo not drawn) [Example 78, N-(4-Cyano-3-trifluoromethylphenyl)-2-cyclohexyl-2-hydroxy-3-[4′-(2-hydroxy-acetyl)biphenyl-3-yl]propionamide] | – | 7.25 | 101
18 | CS(=O)(=O)N1CCN(Cc2cccc(CC(O)(C(=O)Nc3ccc(C#N)c(C(F)(F)F)c3)C3CCCCC3)c2)CC1 (stereo not drawn) [Example 84, N-(4-Cyano-3-trifluoromethylphenyl)-2-cyclohexyl-2-hydroxy-3-[3-(4-methane-sulfonylpiperazin-1-ylmethyl)phenyl]-propionamide] | – | 7.29 | 102
19 | Cn1c(C#N)ccc1NC(=O)C(O)(Cc1ccccc1)C1CCCCC1 (stereo not drawn) [Example 97, N-(5-Cyano-1-methyl-1H-pyrrol-2-yl)-2-cyclohexyl-2-hydroxy-3-phenyl-propionamide] | – | 7.25 | 105
20 | N#Cc1ccc(NC(=O)C(O)(Cc2cccc(-c3cccc(C(=O)N4CCOCC4)c3)c2)C2CCN(C(=O)c3ccccc3)CC2)cc1C(F)(F)F (stereo not drawn) [Example 162, 2-(1-Benzoylpiperidin-4-yl)-N-(4-cyano-3-trifluoromethylphenyl)-2-hydroxy-3-[3′-(morpholine-4-carbonyl)-biphenyl-3-yl]propionamide] | – | 7.36 | 99
21 | CNC(=O)c1cccc(-c2cccc(CC(O)(C(=O)Nc3ccc(C#N)c(C(F)(F)F)c3)C3CCN(S(=O)(=O)c4cccc(F)c4)CC3)c2)c1 (stereo not drawn) [Example 169, N-Methyl-3′-{2-(4-cyano-3-trifluoro-methylphenylcarbamoyl)-2-[1-(3-fluoro-benzenesulfonyl)-piperidin-4-yl]-2-hydroxyethyl}biphenyl-3-carboxamide] | – | 8.77 | 103
